Where two headings read alike, the source gives them in different places.
Columns and labels:
[1] = target: T1, human NK-3 receptor (Homo sapiens (Human), UniProt P29371); experiment: Aequorin functional assay with human NK-3 receptor (antagonist testing vs NKA); format: cell-based; conditions: inhibition of NKA (3 nM, EC80) response, CHO cells expressing human NK3 receptor and apoaequorin
[2] = target: T1, human NK-3 receptor; experiment: 3H-SB222200 binding competition assay with human NK-3 receptor
Description: ^3H-SB222200 Binding Competition Assay with Human NK-3 Receptor
The membranes were incubated with 5 nM ^3H-SB222200(ARC) in a HEPES 25 mM/NaCl 0.1M/CaCl2 1 mM/MgCl2 5 Mm/BSA 0.5%/Saponin 10 μg/ml buffer at pH 7.4 and various concentrations of compounds of the invention. The amount of ^3H-SB222200 bound to the receptor was determined after filtration by the quantification of membrane associated radioactivity using the TopCount-NXT reader (Packard).

[3] = target: hERG channel (Homo sapiens (Human), UniProt Q12809); experiment: hERG inhibition assay (manual patch-clamp, HEK 293 cells)
[4] = target: human NK1 receptor (Homo sapiens (Human), UniProt P25103); experiment: Human NK1 [3H] substance P binding assay (selectivity)
[5] = target: human NK2 receptor (Homo sapiens (Human), UniProt P21452); experiment: Human NK2 [125I]-Neurokinin A binding assay (selectivity)
[6] = Table 6, membranes of CHO cells expressing human NK3 receptor, 5 nM 3H-SB222200, read-out: Ki
[7] = read-out: NK1 Ki, CHO membranes, 2 nM [3H] substance P
[8] = read-out: NK2 Ki, CHO membranes, 0.1 nM [125I]-Neurokinin A
[9] = Table 7, human NK-3 receptor, read-out: NK3 Ki
[10] = read-out: NK1 Ki, for the racemate, value measured for the racemate of the numbered compound
[11] = read-out: NK2 Ki, for the racemate, value measured for the racemate of the numbered compound

Chain of human NK2 receptor (P21452 whole entry): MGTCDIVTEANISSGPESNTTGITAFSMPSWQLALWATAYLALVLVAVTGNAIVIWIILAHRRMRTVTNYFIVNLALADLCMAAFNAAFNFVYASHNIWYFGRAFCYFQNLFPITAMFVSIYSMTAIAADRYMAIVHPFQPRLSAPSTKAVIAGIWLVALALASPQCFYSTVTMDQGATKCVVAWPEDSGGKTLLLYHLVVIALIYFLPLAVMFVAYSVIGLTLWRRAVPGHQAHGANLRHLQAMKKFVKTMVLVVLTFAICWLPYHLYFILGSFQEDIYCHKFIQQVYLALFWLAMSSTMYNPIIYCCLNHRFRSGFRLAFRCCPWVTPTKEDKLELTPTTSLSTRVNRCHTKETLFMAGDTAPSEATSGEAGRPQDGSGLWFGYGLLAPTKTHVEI
Chain of hERG channel (Q12809 whole entry): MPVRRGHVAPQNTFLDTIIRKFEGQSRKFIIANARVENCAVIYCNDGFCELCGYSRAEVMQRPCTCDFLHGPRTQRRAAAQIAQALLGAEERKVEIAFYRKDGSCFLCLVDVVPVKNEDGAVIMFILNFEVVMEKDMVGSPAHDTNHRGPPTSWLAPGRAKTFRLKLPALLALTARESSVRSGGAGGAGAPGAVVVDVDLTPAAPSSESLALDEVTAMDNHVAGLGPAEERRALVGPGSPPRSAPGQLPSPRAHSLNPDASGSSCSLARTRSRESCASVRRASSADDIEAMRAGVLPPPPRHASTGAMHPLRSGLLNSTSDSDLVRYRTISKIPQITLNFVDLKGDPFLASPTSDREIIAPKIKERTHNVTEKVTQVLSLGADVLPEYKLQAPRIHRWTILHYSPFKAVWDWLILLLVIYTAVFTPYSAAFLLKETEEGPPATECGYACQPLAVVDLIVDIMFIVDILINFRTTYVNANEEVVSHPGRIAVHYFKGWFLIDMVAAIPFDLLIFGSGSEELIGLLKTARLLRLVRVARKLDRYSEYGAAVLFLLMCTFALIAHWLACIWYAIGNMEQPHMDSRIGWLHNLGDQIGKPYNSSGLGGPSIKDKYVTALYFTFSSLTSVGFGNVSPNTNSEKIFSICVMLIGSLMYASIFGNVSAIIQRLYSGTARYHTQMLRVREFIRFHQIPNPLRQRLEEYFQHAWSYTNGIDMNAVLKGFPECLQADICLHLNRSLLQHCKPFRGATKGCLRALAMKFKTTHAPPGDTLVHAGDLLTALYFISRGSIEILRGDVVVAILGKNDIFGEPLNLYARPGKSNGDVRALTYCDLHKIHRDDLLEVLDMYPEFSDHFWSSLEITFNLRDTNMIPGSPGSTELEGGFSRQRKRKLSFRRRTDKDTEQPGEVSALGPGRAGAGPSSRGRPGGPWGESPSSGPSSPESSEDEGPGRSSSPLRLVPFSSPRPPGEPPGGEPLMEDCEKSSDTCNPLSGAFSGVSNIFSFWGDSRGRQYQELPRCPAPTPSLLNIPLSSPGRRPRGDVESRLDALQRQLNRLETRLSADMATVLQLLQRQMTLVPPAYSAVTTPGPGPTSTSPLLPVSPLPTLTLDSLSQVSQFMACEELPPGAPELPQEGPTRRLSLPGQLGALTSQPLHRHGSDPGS
T1 sequence (P29371 whole entry): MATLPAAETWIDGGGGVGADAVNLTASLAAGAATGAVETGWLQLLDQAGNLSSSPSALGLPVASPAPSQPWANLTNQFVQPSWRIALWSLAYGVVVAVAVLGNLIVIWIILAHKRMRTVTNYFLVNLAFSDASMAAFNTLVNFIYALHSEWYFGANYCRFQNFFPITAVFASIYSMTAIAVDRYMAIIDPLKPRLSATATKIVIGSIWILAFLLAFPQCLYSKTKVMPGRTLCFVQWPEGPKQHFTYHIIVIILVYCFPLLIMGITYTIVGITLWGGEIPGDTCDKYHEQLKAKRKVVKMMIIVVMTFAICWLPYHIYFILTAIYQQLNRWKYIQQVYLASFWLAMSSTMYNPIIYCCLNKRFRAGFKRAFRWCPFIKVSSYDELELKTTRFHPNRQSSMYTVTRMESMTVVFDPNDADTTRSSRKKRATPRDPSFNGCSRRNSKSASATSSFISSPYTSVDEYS
Chain of human NK1 receptor (P25103 whole entry): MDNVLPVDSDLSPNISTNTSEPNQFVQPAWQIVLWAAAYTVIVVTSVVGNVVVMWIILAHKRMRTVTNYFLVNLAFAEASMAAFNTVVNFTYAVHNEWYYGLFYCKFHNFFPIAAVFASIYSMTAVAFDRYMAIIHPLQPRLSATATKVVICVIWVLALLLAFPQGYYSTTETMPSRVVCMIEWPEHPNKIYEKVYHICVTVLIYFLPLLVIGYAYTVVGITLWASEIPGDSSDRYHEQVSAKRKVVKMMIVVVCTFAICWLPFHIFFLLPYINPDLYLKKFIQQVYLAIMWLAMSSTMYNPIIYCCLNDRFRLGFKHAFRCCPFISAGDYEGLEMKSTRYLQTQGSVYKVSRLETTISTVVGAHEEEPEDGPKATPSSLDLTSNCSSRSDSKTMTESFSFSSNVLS

Row | Structure (SMILES) | IC50 [1] | Ki [2, 6] | also measured
1 | C=Cc1nc(-c2nnc3n2CCN(C(=O)c2ccc(-c4ccccc4)cc2)[C@@H]3C)cs1 [Compound 8, (R)-[1,1′-biphenyl]-4-yl(8-methyl-3-(2-vinylthiazol-4-yl)-5,6-dihydro-[1,2,4]triazolo[4,3-a]pyrazin-7(8H)-yl)methanone] | 7 nM | 7 nM | –
2 | CC(C)c1nc(-c2nnc3n2CCN(C(=O)c2ccc(-c4cccs4)cc2)C3)cs1 [Compound 18, (3-(2-isopropylthiazol-4-yl)-5,6-dihydro-[1,2,4]triazolo[4,3-a]pyrazin-7(8H)-yl)(4-(thiophen-2-yl)phenyl)methanone] | 10 nM | 20 nM | –
3 | C=Cc1nc(-c2nnc3n2CCN(C(=O)c2ccc(-c4ccccc4)cc2)C3)cs1 [Compound 10, [1,1′-biphenyl]-4-yl(3-(2-vinylthiazol-4-yl)-5,6-dihydro-[1,2,4]triazolo[4,3-a]pyrazin-7(8H)-yl)methanone] | 20 nM | 36 nM | –
4 | Cc1nc(-c2nnc3n2CCN(C(=O)c2ccc(-c4cccs4)cc2)[C@@H]3C)sc1C [Compound 22, (R)-(3-(4,5-dimethylthiazol-2-yl)-8-methyl-5,6-dihydro-[1,2,4]triazolo[4,3-a]pyrazin-7(8H)-yl)(4-(thiophen-2-yl)phenyl)methanone] | 21 nM | 21 nM | IC50 [3]: 12000 nM
5 | Cc1cccc(-c2nnc3n2CCN(C(=O)c2ccc(-c4cccs4)cc2)[C@@H]3C)n1 [Compound 30, (R)-(8-methyl-3-(6-methylpyridin-2-yl)-5,6-dihydro-[1,2,4]triazolo[4,3-a]pyrazin-7(8H)-yl)(4-(thiophen-2-yl)phenyl)methanone] | 11 nM | 10 nM | Ki [4, 7]: 17200 nM; Ki [5, 8]: 5930 nM; Ki [2, 9]: 10 nM
6 | C[C@@H]1c2nnc(-c3cccc(O)n3)n2CCN1C(=O)c1ccc(-c2cccs2)cc1 [Compound 31, (R)-(3-(6-hydroxypyridin-2-yl)-8-methyl-5,6-dihydro-[1,2,4]triazolo[4,3-a]pyrazin-7(8H)-yl)(4-(thiophen-2-yl)phenyl)methanone] | 18 nM | 22 nM | IC50 [3]: 20000 nM; Ki [4, 7]: > 10000 nM; Ki [5, 8]: > 10000 nM; Ki [2, 9]: 22 nM
7 | CCc1nc(-c2nnc3n2CCN(C(=O)c2ccc(-c4ccccc4)cc2)[C@@H]3C)cs1 [Compound 6, (R)-[1,1′-biphenyl]-4-yl(3-(2-ethylthiazol-4-yl)-8-methyl-5,6-dihydro-[1,2,4]triazolo[4,3-a]pyrazin-7(8H)-yl)methanone] | 10 nM | 11 nM | –
8 | C=Cc1nc(-c2nnc3n2CCN(C(=O)c2ccc(-c4cccs4)cc2)C3)cs1 [Compound 9, (4-(thiophen-2-yl)phenyl)(3-(2-vinylthiazol-4-yl)-5,6-dihydro-[1,2,4]triazolo[4,3-a]pyrazin-7(8H)-yl)methanone] | 18 nM | 19 nM | –
9 | CC(C)c1nsc(-c2nnc3n2CCN(C(=O)c2ccc(-c4cccs4)cc2)[C@@H]3C)n1 [Compound 25, (R)-(3-(3-isopropyl-1,2,4-thiadiazol-5-yl)-8-methyl-5,6-dihydro-[1,2,4]triazolo[4,3-a]pyrazin-7(8H)-yl)(4-(thiophen-2-yl)phenyl)methanone] | 3 nM | 3 nM | –
10 | CC(C)c1nc(-c2nnc3n2CCN(C(=O)c2ccc(-c4cccs4)cc2)C3)co1 [Compound 14, (3-(2-isopropyloxazol-4-yl)-5,6-dihydro-[1,2,4]triazolo[4,3-a]pyrazin-7(8H)-yl)(4-(thiophen-2-yl)phenyl)methanone] | 47 nM | 42 nM | –
11 | Cc1nc(-c2nnc3n2CCN(C(=O)c2ccc(-c4cccs4)cc2)[C@@H]3C)c(C)s1 [Compound 16, (R)-(3-(2,5-dimethylthiazol-4-yl)-8-methyl-5,6-dihydro-[1,2,4]triazolo[4,3-a]pyrazin-7(8H)-yl)(4-(thiophen-2-yl)phenyl)methanone] | 30 nM | 32 nM | –
12 | Cc1csc(-c2nnc3n2CCN(C(=O)c2ccc(-c4ccccc4)cc2)[C@@H]3C)n1 [Compound 20, (R)-[1,1′-biphenyl]-4-yl(8-methyl-3-(4-methylthiazol-2-yl)-5,6-dihydro-[1,2,4]triazolo[4,3-a]pyrazin-7(8H)-yl)methanone] | 11 nM | 12 nM | –
13 | CCc1nc(-c2nnc3n2CCN(C(=O)c2ccc(-c4cccs4)cc2)[C@@H]3C)cs1 [Compound 5, (R)-(3-(2-ethylthiazol-4-yl)-8-methyl-5,6-dihydro-[1,2,4]triazolo[4,3-a]pyrazin-7(8H)-yl)(4-(thiophen-2-yl)phenyl)methanone] | 3 nM | 5 nM | –
14 | Cc1cc(-c2nnc3n2CCN(C(=O)c2ccc(-c4cccs4)cc2)[C@@H]3C)n(C)n1 [Compound 28, (R)-(3-(1,3-dimethyl-1H-pyrazol-5-yl)-8-methyl-5,6-dihydro-[1,2,4]triazolo[4,3-a]pyrazin-7(8H)-yl)(4-(thiophen-2-yl)phenyl)methanone] | 37 nM | 68 nM | –
15 | C[C@@H]1c2nnc(-c3csc(N(C)C)n3)n2CCN1C(=O)c1ccc(-c2cccs2)cc1 [Compound 17, (R)-(3-(2-(dimethylamino)thiazol-4-yl)-8-methyl-5,6-dihydro-[1,2,4]triazolo[4,3-a]pyrazin-7(8H)-yl)(4-(thiophen-2-yl)phenyl)methanone] | 7 nM | 7 nM | Ki [4, 10]: 6060 nM; Ki [5, 11]: 9950 nM; Ki [2, 9]: 7 nM
16 | Cc1csc(-c2nnc3n2CCN(C(=O)c2ccc(-c4ccccc4)cc2)C3)n1 [Compound 21, [1,1′-biphenyl]-4-yl(3-(4-methylthiazol-2-yl)-5,6-dihydro-[1,2,4]triazolo[4,3-a]pyrazin-7(8H)-yl)methanone] | 33 nM | 38 nM | –
17 | Cc1coc(-c2nnc3n2CCN(C(=O)c2ccc(-c4cccs4)cc2)[C@@H]3C)n1 [Compound 26, (R)-(8-methyl-3-(4-methyloxazol-2-yl)-5,6-dihydro-[1,2,4]triazolo[4,3-a]pyrazin-7(8H)-yl)(4-(thiophen-2-yl)phenyl)methanone] | 12 nM | – | –
18 | Cc1nc(-c2nnc3n2CCN(C(=O)c2ccc(-c4ccccc4)cc2)[C@@H]3C)co1 [Compound 12, (R)-[1,1′-biphenyl]-4-yl(8-methyl-3-(2-methyloxazol-4-yl)-5,6-dihydro-[1,2,4]triazolo[4,3-a]pyrazin-7(8H)-yl)methanone] | 58 nM | 70 nM | –
19 | C=Cc1nc(-c2nnc3n2CCN(C(=O)c2ccc(-c4cccs4)cc2)[C@@H]3C)cs1 [Compound 7, (R)-(8-methyl-3-(2-vinylthiazol-4-yl)-5,6-dihydro-[1,2,4]triazolo[4,3-a]pyrazin-7(8H)-yl)(4-(thiophen-2-yl)phenyl)methanone] | 3 nM | 4 nM | –
20 | Cc1noc(-c2nnc3n2CCN(C(=O)c2ccc(-c4cccs4)cc2)[C@@H]3C)n1 [Compound 23, (R)-(8-methyl-3-(3-methyl-1,2,4-oxadiazol-5-yl)-5,6-dihydro-[1,2,4]triazolo[4,3-a]pyrazin-7(8H)-yl)(4-(thiophen-2-yl)phenyl)methanone] | – | – | inhibition at 10 µM ([4]; read-out: NK1 % inhibition at 10 μM, for the racemate): < 10%; Ki [4, 10]: > 10000 nM; inhibition at 10 µM ([5]; read-out: NK2 % inhibition at 10 μM, for the racemate): < 25%; Ki [5, 11]: > 10000 nM
21 | Cc1cccc(-c2nnc3n2CCN(C(=O)c2ccc(-c4ccccc4)cc2)[C@@H]3C)n1 [Compound 29, (R)-[1,1′-biphenyl]-4-yl(8-methyl-3-(6-methylpyridin-2-yl)-5,6-dihydro-[1,2,4]triazolo[4,3-a]pyrazin-7(8H)-yl)methanone] | 18 nM | 23 nM | –
22 | O=C(c1ccc(-c2cccs2)cc1)N1CCn2c(nnc2-c2csc(C(F)(F)F)n2)C1 [Compound 4, (4-(thiophen-2-yl)phenyl)(3-(2-(trifluoromethyl)thiazol-4-yl)-5,6-dihydro-[1,2,4]triazolo[4,3-a]pyrazin-7(8H)-yl)methanone] | 50 nM | 56 nM | IC50 [3]: > 30000 nM
23 | CC(C)c1nc(-c2nnc3n2CCN(C(=O)c2ccc(-c4cccs4)cc2)[C@@H]3C)co1 [Compound 13, (R)-(3-(2-isopropyloxazol-4-yl)-8-methyl-5,6-dihydro-[1,2,4]triazolo[4,3-a]pyrazin-7(8H)-yl)(4-(thiophen-2-yl)phenyl)methanone] | 2 nM | 3 nM | –
24 | Cc1coc(-c2nnc3n2CCN(C(=O)c2ccc(-c4ccccc4)cc2)[C@@H]3C)n1 [Compound 27, (R)-[1,1′-biphenyl]-4-yl(8-methyl-3-(4-methyloxazol-2-yl)-5,6-dihydro-[1,2,4]triazolo[4,3-a]pyrazin-7(8H)-yl)methanone] | 51 nM | 51 nM | –
25 | Cc1nc(-c2nnc3n2CCN(C(=O)c2ccc(-c4ccccc4)cc2)[C@@H]3C)cs1 [Compound 2, (R)-[1,1′-biphenyl]-4-yl(8-methyl-3-(2-methylthiazol-4-yl)-5,6-dihydro-[1,2,4]triazolo[4,3-a]pyrazin-7(8H)-yl)methanone] | 28 nM | 26 nM | –
26 | C[C@@H]1c2nnc(-c3coc(C4CC4)n3)n2CCN1C(=O)c1ccc(-c2cccs2)cc1 [Compound 15, (R)-(3-(2-cyclopropyloxazol-4-yl)-8-methyl-5,6-dihydro-[1,2,4]triazolo[4,3-a]pyrazin-7(8H)-yl)(4-(thiophen-2-yl)phenyl)methanone] | 9 nM | 11 nM | –

— US9475814B2, “Chiral N-acyl-5,6,7(8-substituted)-tetrahydro-[1,2,4]triazolo[4,3-a]pyrazines as selective NK-3 receptor antagonists, pharmaceutical composition, methods for use in NK-3 receptor mediated disorders and chiral synthesis thereof” (Euroscreen S.A., priority 2011, dated 2016)
